Reference: patent US9624195B2, “Isoquinoline compounds” (Gilead Sciences, Inc., priority 2014, dated 2017)
Read-outs that look alike come from different tables or passages of the source.

Tests used:
Format in all cases: cell-based
[1] = system: HIV-1 reverse transcriptase mutant Y181C; experiment: High throughput cytopathic effect assay in MT-4 cells, HIV-1 RT mutant Y181C; conditions: for EC50: Human immunodeficiency virus 1, MT4, read-out: MT4 EC50 (nM) against Y181C; for FC against mutant Y181C: fold change of EC50, Y181C versus w.t. assay 2
Source text: (§1) Compounds were screened in a miniaturized, high throughput cytopathic effect assay for activity against HIV-1 HBX2 (wild type) and HIV-1 reverse transcriptase mutants K103N and Y181C. In Tables 1 and 2 below, “w.t.” refers to results of the tested compounds run with the wildtype 1 and “w.t. assay 2” refers results of the tested compounds run with the wildtype on the same day as the testing of the compounds with the mutants. Thus, “w.t. assay 2” was run under the same conditions as the testing of the compounds with the mutants and provides a direct comparison with the results from the testing with the mutants.
(§2) Ten-point serial dilutions of compounds with half-log step size were generated in DMSO. AZT (5 μM) was used as the positive control and DMSO as the negative control. The Echo acoustic dispenser was used to deliver 200 nL of serially diluted compound into sterile 384 well tissue culture assay plates. Two million MT-4 cells were incubated with each of the 3 viruses at MOI of 0.0005 in separate 1 mL infection tubes for 1 hour at 37° C. The cells were diluted in cell culture medium (RPMI+10% FBS) to 50,000 cells/mL. The infected cells were added to 384 well assay plates containing serially dilute compounds. Assay plates were incubated for 5 days in a humidified incubator set at 37° C. and 5% CO2. To measure the cytopathic effect of HIV, 40 μL Cell TiterGlo was added to each well and the resulting luminescence signal is read with the Envision plate reader (Perkin Elmer). Data were normalized to positive and negative controls in each plate and expressed as % CPE Protection. EC50 values were defined as the compound concentration that caused a 50% […] in luminescence signal, and were calculated by non-linear regression using Pipeline Pilot software by applying a four parameter fit equation (Accelrys, San Diego, Calif.).
(§3) The high-throughput screening was also run for nevirapine (“NPV”), rilpivirine (“RPV”), and efavirenz (“EFV”). Nevirapine was obtained from Toronto Research Chemicals, Inc. (Toronto, Canada; Catalogue #N391275). Rilpivirine was obtained from Key Organics Ltd. (Camelford, Cornwall, United Kingdom; Catalogue #KE-0036). Efavirenz was obtained from Toronto Research Chemicals, Inc. (Toronto, Canada; Catalogue #E425000). Further details and background can be found in Janssen et al, J. Med. Chem, 2005, 48, 1901-1909; Das et al., Proc. Nat. Acad. Sci., 2008, vol., 105, no. 5, 1466-1471; and Kuroda et al., Nature Chemistry, 2013, DOI: 10.1038/NCHEM.1559.

[2] = system: HIV-1 reverse transcriptase mutant K103N; experiment: High throughput cytopathic effect assay in MT-4 cells, HIV-1 RT mutant K103N; conditions: for EC50: Human immunodeficiency virus 1, MT4, read-out: MT4 EC50 (nM) against K103N; for FC against mutant K103N: fold change of EC50, K103N versus w.t. assay 2
Source text: as §1, §2, §3

HIV-1 HBX2 (wild type) = experiment: High throughput cytopathic effect assay in MT-4 cells, HIV-1 wild type
Source text: as §1, §2, §3

hERG channels = biological target: T1, hERG channels (Homo sapiens, UniProt Q12809); experiment: hERG assay, whole cell recordings in CHO cells stably expressing hERG channels; conditions: tail current, whole cell patch clamp
T1 construct: host or cells: CHO cells stably expressing hERG
Procedure: AVIVA's CHO cell line, which stably expresses hERG channels, was used for the study. Cells were cultured in DMEM/F12 containing 10% FBS, 1% penicillin/streptomycin and 500 μg/ml G418. Before testing, cells were harvested using Accumax (Innovative Cell Technologies).
For electrophysiological recordings, the following solutions were used:
External Solution: 2 mM CaCl2; 2 mM MgCl2; 4 mM KCl; 150 mM NaCl; 10 mM Glucose; 10 mM HEPES; 305-315 mOsm; pH 7.4 (adjusted with 5M NaOH.)
Internal Solution: 140 mM KCl; 10 mM MgCl2; 6 mM EGTA; 5 mM HEPES-Na; 5 mM ATP-Mg; 295-305 mOsm; pH 7.25 (adjusted with 1M KOH).
Whole cell recordings were performed using PX 7000A (Axon Instruments) with AVIVA's SealChip™ technology. Cells were voltage clamped at a holding potential of −80 mV. The hERG current was then activated by a depolarizing step to −50 mV for 300 ms. This first step at −50 mV was used as a baseline for measuring peak amplitude of the tail current. Next, a voltage step to +20 mV was applied for 5 s to activate the channels. Finally, a step back to −50 mV for 5 s removed activation and the deactivating tail current was recorded.
All test articles were prepared from 10 mM DMSO stock solutions. […]
After achieving whole cell configuration, cells were monitored for 90 s to assess stability and then washed with External Solution for 66 s. […]

[3] = Human immunodeficiency virus 1, MT4, 120 h, MT-4 cells, HIV-1 wild type, 5 days, CPE protection (Cell TiterGlo), read-out: MT4 EC50 (nM) against w.t.
[4] = Human immunodeficiency virus 1, MT4, read-out: MT4 EC50 (nM) against w.t. assay 2

T1 sequence (Q12809 whole entry): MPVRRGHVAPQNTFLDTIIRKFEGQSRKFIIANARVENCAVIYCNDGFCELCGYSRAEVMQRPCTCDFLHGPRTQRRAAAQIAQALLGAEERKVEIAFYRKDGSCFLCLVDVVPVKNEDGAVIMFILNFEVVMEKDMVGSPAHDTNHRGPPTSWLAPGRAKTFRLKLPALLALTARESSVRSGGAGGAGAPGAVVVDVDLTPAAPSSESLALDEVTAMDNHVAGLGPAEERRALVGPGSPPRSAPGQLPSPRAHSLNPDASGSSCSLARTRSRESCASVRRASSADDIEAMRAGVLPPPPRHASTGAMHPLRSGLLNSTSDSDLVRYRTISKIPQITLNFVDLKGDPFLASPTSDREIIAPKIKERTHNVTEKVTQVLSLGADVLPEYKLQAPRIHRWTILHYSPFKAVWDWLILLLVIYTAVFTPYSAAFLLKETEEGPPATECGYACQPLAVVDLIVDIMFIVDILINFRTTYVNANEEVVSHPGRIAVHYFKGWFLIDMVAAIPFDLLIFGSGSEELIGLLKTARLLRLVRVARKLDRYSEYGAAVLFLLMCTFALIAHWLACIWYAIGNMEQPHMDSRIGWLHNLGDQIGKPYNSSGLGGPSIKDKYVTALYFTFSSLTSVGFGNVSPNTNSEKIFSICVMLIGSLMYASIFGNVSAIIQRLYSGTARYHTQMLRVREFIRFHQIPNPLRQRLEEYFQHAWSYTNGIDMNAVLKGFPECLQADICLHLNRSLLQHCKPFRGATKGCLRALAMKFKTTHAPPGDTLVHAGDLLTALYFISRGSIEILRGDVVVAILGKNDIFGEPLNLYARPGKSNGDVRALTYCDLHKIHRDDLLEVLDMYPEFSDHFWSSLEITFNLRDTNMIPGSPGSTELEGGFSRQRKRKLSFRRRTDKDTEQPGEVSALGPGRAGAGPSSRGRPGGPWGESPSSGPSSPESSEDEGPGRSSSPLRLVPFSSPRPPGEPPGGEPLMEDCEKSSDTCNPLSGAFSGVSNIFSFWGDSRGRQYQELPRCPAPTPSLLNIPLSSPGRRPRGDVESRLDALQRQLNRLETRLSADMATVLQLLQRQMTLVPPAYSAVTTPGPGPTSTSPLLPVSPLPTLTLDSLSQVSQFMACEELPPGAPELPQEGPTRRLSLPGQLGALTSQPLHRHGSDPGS

## Cc1cc(/C=C/C#N)cc(C)c1-c1cccc2c(N)nc(Nc3ncc(C#N)cn3)cc12 [Compound 1, (E)-2-((1-Amino-5-(4-(2-cyanovinyl)-2,6-dimethylphenyl)isoquinolin-3-yl)amino)pyrimidine-5-carbonitrile]
[1]
  EC50: 51.6 nM
  FC against mutant Y181C: 11.5
[2]
  EC50: 6.4 nM
  FC against mutant K103N: 1.4
HIV-1 HBX2 (wild type); [3]
  EC50: 6.4 nM
HIV-1 HBX2 (wild type); [4]
  EC50: 4.5 nM

## Cc1cc(/C=C/C#N)cc(C)c1-c1cccc2c(N)nc(Nc3cnc(C#N)cn3)cc12 [Compound 2, (E)-5-((1-Amino-5-(4-(2-cyanovinyl)-2,6-dimethylphenyl)isoquinolin-3-yl)amino)pyrazine-2-carbonitrile]
[1]
  EC50: 109 nM
  FC against mutant Y181C: 5.4
[2]
  EC50: 29.7 nM
  FC against mutant K103N: 1.5
HIV-1 HBX2 (wild type); [3]
  EC50: 14.4 nM
HIV-1 HBX2 (wild type); [4]
  EC50: 20.2 nM

## Cc1cc(/C=C/C#N)cc(C)c1-c1cccc2c(N)nc(Nc3ccc(C#N)nn3)cc12 [Compound 3, (E)-6-((1-Amino-5-(4-(2-cyanovinyl)-2,6-dimethylphenyl)isoquinolin-3-yl)amino)pyridazine-3-carbonitrile]
[1]
  EC50: 174 nM
  FC against mutant Y181C: 7.7
[2]
  EC50: 36.4 nM
  FC against mutant K103N: 1.6
HIV-1 HBX2 (wild type); [3]
  EC50: 17 nM
HIV-1 HBX2 (wild type); [4]
  EC50: 22.7 nM

## Cc1cc(/C=C/C#N)cc(C)c1-c1cccc2c(N)nc(Nc3ccc(C#N)cn3)cc12 [Compound 4, (E)-6-((1-Amino-5-(4-(2-cyanovinyl)-2,6-dimethylphenyl)isoquinolin-3-yl)amino)nicotinonitrile]
[1]
  EC50: 12 nM
  FC against mutant Y181C: 3.4
[2]
  EC50: 3.7 nM
  FC against mutant K103N: 1.0
HIV-1 HBX2 (wild type); [3]
  EC50: 2.8 nM
HIV-1 HBX2 (wild type); [4]
  EC50: 3.6 nM
hERG channels
  hERG: 3 µM

## Cc1cc(/C=C/C#N)cc(C)c1-c1cccc2cnc(Nc3ccc(C#N)cn3)cc12 [Compound 5, (E)-6-((5-(4-(2-Cyanovinyl)-2,6-dimethylphenyl)isoquinolin-3-yl)amino)nicotinonitrile]
[1]
  EC50: 12 nM
  FC against mutant Y181C: 2.5
[2]
  EC50: 4.7 nM
  FC against mutant K103N: 1.0
HIV-1 HBX2 (wild type); [3]
  EC50: 4.2 nM
HIV-1 HBX2 (wild type); [4]
  EC50: 4.7 nM

## Cc1cc(/C=C/C#N)cc(C)c1-c1cccc2cnc(Nc3ccc(C#N)cc3)cc12 [Compound 6, (E)-4-((5-(4-(2-Cyanovinyl)-2,6-dimethylphenyl)isoquinolin-3-yl)amino)benzonitrile]
HIV-1 HBX2 (wild type); [3]
  EC50: 12.9 nM

## O=C1Nc2ccc(Cl)cc2[C@@](C#CC2CC2)(C(F)(F)F)O1 [Efavirenz, efavirenz, reference compound]
[1]
  EC50: 3.8 nM
  FC against mutant Y181C: 2.3
[2]
  EC50: 46.4 nM
  FC against mutant K103N: 28.9
HIV-1 HBX2 (wild type); [3]
  EC50: 1.3 nM
HIV-1 HBX2 (wild type); [4]
  EC50: 1.6 nM

## Cc1ccnc2c1NC(=O)c1cccnc1N2C1CC1 [Nevirapine, nevirapine, reference compound]
HIV-1 HBX2 (wild type); [3]
  EC50: 65 nM

## Cc1cc(/C=C/C#N)cc(C)c1Nc1ccnc(Nc2ccc(C#N)cc2)n1 [Rilpivirine, rilpivirine, reference compound]
[1]
  EC50: 3.8 nM
  FC against mutant Y181C: 3.1
[2]
  EC50: 1.5 nM
  FC against mutant K103N: 1.2
HIV-1 HBX2 (wild type); [3]
  EC50: 0.9 nM
HIV-1 HBX2 (wild type); [4]
  EC50: 1.3 nM
hERG channels
  hERG: 0.5 µM
